Data as given in patent US20010007866A1, “TREATMENT OF PRURITUS WITH VITAMIN D AND ANALOGS THEREOF” (priority 1995, published 2001).
Where “and” joins values, the source holds several entries; their conditions need not be identical. Equal values may be shown once.

Columns and labels:
pruritus of sunburn = assay: Topical application to pruritus of sunburn (subject two); assay type: in vivo, human
Experimental: A corn oil solution of vitamin D3 was prepared by adding 1 gram of vitamin D3 to 20 ml corn oil with mixing for approximately 1 hour followed by brief heating to approximately 45° C. until dissolved. One ml of this solution was mixed with 47 ml corn oil and 2 ml isopropyl myristate to obtain a final concentration of vitamin D3 of 1000 μg/ml.
Subject two developed a sunburn on the back and experienced severe pruritus. […] The pruritus abated completely about one-half hour after these applications.

[1] = test system: pruritus caused by poison ivy; assay: Topical application to poison ivy rash, pruritic score on 100 mm visual analog scale (subject one); assay type: in vivo, human
Experimental: Testing Procedure: Subject one contracted poison ivy rash and tested the various preparations above. Preparations were evaluated by the subject after application to an area of rash approximately 1-10 square centimeters. Comparisons were made of antipruritic effect by marking on a 100 mm visual analog scale consisting of a plain line with the left end labeled “None” and the right end labeled “Maximal”. The subject was instructed to mark the scale at a point which they felt corresponded to the level of itchiness that they were feeling at the treatment site at the appropriate time. The samples were coded so that the subject was not aware of what a given sample was and they were not told if they were expected to have an effect. They carried out the evaluation unaided, applying the samples in any order they chose except where side-by-side comparisons were made as indicated in the tables. From the marked scale the pruritic score was determined as the number of mm from the left side of the scale to the subject's mark. Thus a higher value indicates a high level or pruritus and a low value indicates a low level to no pruritus.
The patient and test procedures were as described in example 3. The results of tests using oil-based formulations are in tables 2a through 2c.
The patient and test procedures were as described in example 3. The results of tests using oil-based formulations are in Table 3.
Serial dilutions of Vita Moist Cream were made from an initial 5 ml quantity of Vita Moist Cream by adding successive 5 ml quantities of the diluent, Care Deeply Cream, to the starting formulation and subsequent 5 ml aliquots of successive dilutions as follows:
After coding with numbers 1-6 as above, the preparations were randomly sorted and again coded […] and tested two at a time in alphabetical order. […] The minimal effective concentration in this formulation appears to be between 1.25 and 2.5 μg/ml.

C=C1CC[C@H](O)C/C1=C/C=C1\CCC[C@]2(C)[C@@H]([C@H](C)CCCC(C)C)CC[C@@H]12 [Vitamin D3, cholecalciferol]
antipruritic effect (in words) (pruritus of sunburn; 1000 μg/ml in corn oil): immediately and completely alleviated | time until the pruritus returned (pruritus of sunburn; after 1000 μg/ml in corn oil): one and one-half | antipruritic effect (in words, no scores recorded) ([1]; 869 μg/ml in Eucerin lotion, compared with Eucerin plus corn oil control): stopped the pruritus instantly and completely | antipruritic effect (in words) ([1]; Keri lotion as vehicle, Table 1b): rapid and complete antipruritic effect | pruritic score (100 mm visual analog scale) ([1]; Keri lotion with added isopropyl myristate, 52 μg/ml, time 0 min): 77 mm | pruritic score (100 mm visual analog scale) ([1]; Keri lotion with added isopropyl myristate, 52 μg/ml, time 1 min): 35 mm | pruritic score (100 mm visual analog scale) ([1]; Keri lotion with added isopropyl myristate, 52 μg/ml, time 5 min): 0 mm | pruritic score (100 mm visual analog scale) ([1]; Keri lotion with added isopropyl myristate, 52 μg/ml, time 10 min): 0 mm | pruritic score (100 mm visual analog scale) ([1]; Keri lotion with added isopropyl myristate, 502 μg/ml, time 0 min): 80 mm | pruritic score (100 mm visual analog scale) ([1]; Keri lotion with added isopropyl myristate, 502 μg/ml, time 1 min): 0 mm | pruritic score (100 mm visual analog scale) ([1]; Keri lotion with added isopropyl myristate, 502 μg/ml, time 5 min): 0 mm | pruritic score (100 mm visual analog scale) ([1]; Keri lotion with added isopropyl myristate, 502 μg/ml, time 10 min): 0 mm | pruritic score (100 mm visual analog scale) ([1]; Keri lotion with added isopropyl myristate, 869 μg/ml, time 0 min): 82 mm | pruritic score (100 mm visual analog scale) ([1]; Keri lotion with added isopropyl myristate, 869 μg/ml, time 1 min): 0 mm | pruritic score (100 mm visual analog scale) ([1]; Keri lotion with added isopropyl myristate, 869 μg/ml, time 5 min): 0 mm | pruritic score (100 mm visual analog scale) ([1]; Keri lotion with added isopropyl myristate, 869 μg/ml, time 10 min): 0 mm | pruritic score (100 mm visual analog scale) ([1]; Keri lotion, 10 μg/ml, no isopropyl myristate, time 0 min, single tests): 78 mm and 80 mm | pruritic score (100 mm visual analog scale) ([1]; Keri lotion, 10 μg/ml, no isopropyl myristate, time 1 min, single tests): 0 mm | pruritic score (100 mm visual analog scale) ([1]; Keri lotion, 10 μg/ml, no isopropyl myristate, time 5 min, single tests): 0 mm | pruritic score (100 mm visual analog scale) ([1]; Keri lotion, 10 μg/ml, no isopropyl myristate, time 10 min, single tests): 0 mm | pruritic score (100 mm visual analog scale) ([1]; Keri lotion, 10 μg/ml, with isopropyl myristate, time 0 min, single tests): 80 mm and 77 mm | pruritic score (100 mm visual analog scale) ([1]; Keri lotion, 10 μg/ml, with isopropyl myristate, time 5 min, single tests): 0 mm | pruritic score (100 mm visual analog scale) ([1]; Keri lotion, 10 μg/ml, with isopropyl myristate, time 10 min, single tests): 0 mm | pruritic score, Mean ([1]; Keri lotion, 10 μg/ml, mean of four tests (with and without isopropyl myristate), time 0 min): 79 mm | pruritic score, Mean ([1]; Keri lotion, 10 μg/ml, mean of four tests (with and without isopropyl myristate), time 1 min): 0 mm | pruritic score, Mean ([1]; Keri lotion, 10 μg/ml, mean of four tests (with and without isopropyl myristate), time 5 min): 0 mm | pruritic score, Mean ([1]; Keri lotion, 10 μg/ml, mean of four tests (with and without isopropyl myristate), time 10 min): 0 mm | pruritic score (100 mm visual analog scale) ([1]; Keri lotion, 521 μg/ml, no isopropyl myristate, time 0 min): 80 mm | pruritic score (100 mm visual analog scale) ([1]; Keri lotion, 521 μg/ml, no isopropyl myristate, time 1 min): 81 mm | pruritic score (100 mm visual analog scale) ([1]; Keri lotion, 521 μg/ml, no isopropyl myristate, time 5 min): 0 mm | pruritic score (100 mm visual analog scale) ([1]; Keri lotion, 521 μg/ml, no isopropyl myristate, time 10 min): 0 mm | antipruritic effect (in words) ([1]; Keri lotion, concentrations from 10 through 869 μg/ml, Table 1c): effective in rapidly and effectively relieving pruritus | antipruritic effect (in words) ([1]; Vita Moist Cream diluted with Care Deeply Cream, 1.25 μg/ml and 0.5 μg/ml): some antipruritic effect but the effect was not complete nor was it rapid and sustained | antipruritic effect (in words) ([1]; Vita Moist Cream diluted with Care Deeply Cream, 2.5 and 5 μg/ml): rapid and complete alleviation of pruritus | antipruritic effect (in words) ([1]; corn oil vehicle, 1000 μg/ml, mean of two tests compared to vehicle control): no detectable antipruritic effect | pruritic score, Mean ([1]; corn oil, 1000 μg/ml, mean of two tests, time 0 min): 81 mm | pruritic score, Mean ([1]; corn oil, 1000 μg/ml, mean of two tests, time 1 min): 81 mm | pruritic score, Mean ([1]; corn oil, 1000 μg/ml, mean of two tests, time 5 min): 70 mm | pruritic score, Mean ([1]; corn oil, 1000 μg/ml, mean of two tests, time 10 min): 59 mm | pruritic score (100 mm visual analog scale) ([1]; corn oil, 1000 μg/ml, time 0 min, tests 1 and 2): 80 mm and 81 mm | pruritic score (100 mm visual analog scale) ([1]; corn oil, 1000 μg/ml, time 1 min, tests 1 and 2): 80 mm and 81 mm | pruritic score (100 mm visual analog scale) ([1]; corn oil, 1000 μg/ml, time 5 min, tests 1 and 2): 81 mm and 58 mm | pruritic score (100 mm visual analog scale) ([1]; corn oil, 1000 μg/ml, time 10 min, tests 1 and 2): 60 mm and 58 mm | lowest concentration found to have an anti-pruritic effect ([1]; non-aqueous vehicle): 521 µg/mL | antipruritic effect (in words) ([1]; petroleum jelly vehicle, 521 μg/ml): an antipruritic effect | pruritic score (100 mm visual analog scale) ([1]; petroleum jelly, 521 μg/ml, time 0 min): 72 mm | pruritic score (100 mm visual analog scale) ([1]; petroleum jelly, 521 μg/ml, time 1 min): 11 mm | pruritic score (100 mm visual analog scale) ([1]; petroleum jelly, 521 μg/ml, time 5 min): 10 mm | pruritic score (100 mm visual analog scale) ([1]; petroleum jelly, 521 μg/ml, time 10 min): 9 mm | effective concentration ([1]; suspension of water and a dispersed phase): 12.5 µg/mL | lowest effective concentration ([1]; water-based emulsion formulation): 2.5 µg/mL
